Consider 30 molecules from patent publication US20260138961A1, “MODULATORS OF MITOCHONDRIAL DNA REPLICATION” (Pretzel Therapeutics, Inc., priority 2022, published 2026).

A value given as a limit tells only on which side of the number the result lay.

What is called AC50 is the concentration giving half of the maximal activity seen.

For this assay, the target named is T1, POLγA:G848S (Homo sapiens, UniProt P54098, G848S).
T1 sequence (P54098 1-1239 G848S): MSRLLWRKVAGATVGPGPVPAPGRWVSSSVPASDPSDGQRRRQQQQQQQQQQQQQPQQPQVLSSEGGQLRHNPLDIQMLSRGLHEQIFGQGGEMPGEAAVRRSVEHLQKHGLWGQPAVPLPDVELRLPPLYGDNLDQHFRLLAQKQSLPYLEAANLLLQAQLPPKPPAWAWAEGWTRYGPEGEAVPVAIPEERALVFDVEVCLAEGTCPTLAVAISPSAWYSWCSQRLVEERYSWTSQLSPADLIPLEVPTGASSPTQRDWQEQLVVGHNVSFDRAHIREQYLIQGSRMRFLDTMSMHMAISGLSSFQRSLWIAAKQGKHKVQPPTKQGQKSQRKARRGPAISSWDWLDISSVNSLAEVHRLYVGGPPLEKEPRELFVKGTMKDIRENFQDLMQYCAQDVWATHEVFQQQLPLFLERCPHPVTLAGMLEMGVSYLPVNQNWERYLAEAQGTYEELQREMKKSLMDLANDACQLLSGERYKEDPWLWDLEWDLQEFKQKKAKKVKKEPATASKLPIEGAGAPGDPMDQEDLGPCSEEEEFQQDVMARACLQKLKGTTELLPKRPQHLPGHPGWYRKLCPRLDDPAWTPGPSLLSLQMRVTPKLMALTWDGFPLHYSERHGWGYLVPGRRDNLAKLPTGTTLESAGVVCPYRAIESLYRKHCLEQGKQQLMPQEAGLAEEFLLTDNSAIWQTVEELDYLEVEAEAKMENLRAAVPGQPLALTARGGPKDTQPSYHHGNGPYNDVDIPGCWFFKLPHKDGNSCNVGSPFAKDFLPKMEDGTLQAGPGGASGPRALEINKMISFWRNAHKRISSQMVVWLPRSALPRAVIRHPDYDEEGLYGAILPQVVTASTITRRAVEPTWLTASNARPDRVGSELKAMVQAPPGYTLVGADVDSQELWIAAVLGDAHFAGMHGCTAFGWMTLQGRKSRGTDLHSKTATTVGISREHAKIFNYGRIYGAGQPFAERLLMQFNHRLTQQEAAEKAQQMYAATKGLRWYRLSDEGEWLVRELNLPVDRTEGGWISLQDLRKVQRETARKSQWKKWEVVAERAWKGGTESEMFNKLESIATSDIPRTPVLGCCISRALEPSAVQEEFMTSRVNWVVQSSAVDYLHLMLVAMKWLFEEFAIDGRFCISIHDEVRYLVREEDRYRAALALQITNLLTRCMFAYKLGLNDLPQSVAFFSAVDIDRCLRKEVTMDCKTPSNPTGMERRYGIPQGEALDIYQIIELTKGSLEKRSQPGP
T1 sequence (Q9UHN1 1-485 partner): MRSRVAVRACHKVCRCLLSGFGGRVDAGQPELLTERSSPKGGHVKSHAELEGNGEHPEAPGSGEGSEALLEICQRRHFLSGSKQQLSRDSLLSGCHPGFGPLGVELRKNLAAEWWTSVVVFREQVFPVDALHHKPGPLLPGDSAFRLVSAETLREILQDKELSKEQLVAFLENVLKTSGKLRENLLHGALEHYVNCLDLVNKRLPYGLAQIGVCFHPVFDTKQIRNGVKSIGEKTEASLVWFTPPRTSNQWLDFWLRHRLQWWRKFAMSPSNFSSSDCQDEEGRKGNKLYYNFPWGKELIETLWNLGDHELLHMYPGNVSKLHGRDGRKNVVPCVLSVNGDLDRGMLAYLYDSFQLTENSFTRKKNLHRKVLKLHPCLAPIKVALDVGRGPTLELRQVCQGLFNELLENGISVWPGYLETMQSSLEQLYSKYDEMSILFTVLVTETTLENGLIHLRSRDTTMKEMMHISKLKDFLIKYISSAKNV
Briefly: DNA polymerization assay, POLγA:G848S mutant. It is filed as biochemical. The following applies: stimulation of polymerase activity, primed M13mp18 ssDNA, 37° C. 2 hours; read-out: G848S AC50.
For the molecule `Cc1cc(S(=O)(=O)Nc2ccc(F)c(-c3nccs3)c2)c(C)cc1Cl` [Example 63, 4-chloro-N-(4-fluoro-3-(thiazol-2-yl)phenyl)-2,5-dimethylbenzenesulfonamide], the concentration at half-maximal activity (AC50) is above 100 µM.

Take `Cc1cc(S(=O)(=O)Nc2cccc(C(=O)N(C)C(C)CO)c2)c(C)cc1Cl` (single isomer, unassigned) [Example 15, 3-((4-chloro-2,5-dimethylphenyl)sulfonamido)-N-(1-hydroxypropan-2-yl)-N-methylbenzamide]: the AC50 came to 30 µM.

With `Cc1cc(S(=O)(=O)N(C)c2cccc(-c3nccs3)c2)c(C)cc1Cl` [Example 22, 4-chloro-N,2,5-trimethyl-N-(3-(thiazol-2-yl)phenyl)benzenesulfonamide], the AC50 was above 100 µM.

For the molecule `Cc1cc(S(=O)(=O)Nc2csc(-n3cccn3)n2)c(C)cc1Cl` [Example 178, N-(2-(1H-pyrazol-1-yl)thiazol-4-yl)-4-chloro-2,5-dimethylbenzenesulfonamide], the AC50 came to 1 µM.

Take `Cc1cc(S(=O)(=O)Nc2cc(C(=O)N3CCC[C@H]3C)ccc2F)c(C)cc1Cl` [Example 50, (R)-4-chloro-N-(2-fluoro-5-(2-methylpyrrolidine-1-carbonyl)phenyl)-2,5-dimethylbenzenesulfonamide]: the AC50 was 11 µM.

Regarding `Cc1cc(S(=O)(=O)Nc2cccc(C(=O)N3CCCC34CC4)c2)c(C)cc1Cl` [Example 162, N-(3-(4-azaspiro[2.4]heptane-4-carbonyl)phenyl)-4-chloro-2,5-dimethylbenzenesulfonamide], the AC50 amounted to 13 µM.

For `Cc1cc(S(=O)(=O)Nc2csc(C(=O)N(C)CC(N)=O)n2)c(C)cc1Cl` [Example 172, N-(2-amino-2-oxoethyl)-4-((4-chloro-2,5-dimethylphenyl)sulfonamido)-N-methylthiazole-2-carboxamide], the AC50 was above 10 µM.

Take `Cc1ccc(C)c(S(=O)(=O)Nc2cccc(C(N)=O)c2)c1` [Example 27, 3-((2,5-dimethylphenyl)sulfonamido)benzamide]: the AC50 was above 100 µM.

On to `Cc1cc(S(=O)(=O)N[C@H]2CCCN(c3ccccc3)C2)c(C)cc1Cl` [Example 161, (S)-4-chloro-2,5-dimethyl-N-(1-phenylpiperidin-3-yl)benzenesulfonamide], for which the half-maximal activity concentration (AC50) was 31 µM.

Turning to `Cc1cc(S(=O)(=O)Nc2ccc(F)c(C(=O)N3CCC[C@H]3C)c2)c(C)cc1Cl` [Example 49, (R)-4-chloro-N-(4-fluoro-3-(2-methylpyrrolidine-1-carbonyl)phenyl)-2,5-dimethylbenzenesulfonamide], the AC50 amounted to 14 µM.

For `Cc1ccc(C)c(S(=O)(=O)Nc2cccc(C(=O)N(C)CC3CC3)c2)c1` [Example 33, N-(cyclopropylmethyl)-3-((2,5-dimethylphenyl)sulfonamido)-N-methylbenzamide], the AC50 was found to be 56 µM.

As for `Cc1cc(S(=O)(=O)Nc2csc(-c3cnn(C)c3)n2)c(C)cc1Cl` [Example 183, 4-chloro-2,5-dimethyl-N-(2-(1-methyl-1H-pyrazol-4-yl)thiazol-4-yl)benzenesulfonamide], the AC50 was 0.5 µM.

Take `Cc1cc(S(=O)(=O)Nc2cc(F)cc(-c3nccs3)c2)c(C)cc1Cl` [Example 62, 4-chloro-N-(3-fluoro-5-(thiazol-2-yl)phenyl)-2,5-dimethylbenzenesulfonamide]: the AC50 is above 100 µM.

For the molecule `Cc1ccc(C)c(S(=O)(=O)Nc2cccc(C(=O)N3CCOCC3)c2)c1` [Example 29, 2,5-dimethyl-N-(3-(morpholine-4-carbonyl)phenyl)benzenesulfonamide], the half-maximal activity concentration (AC50) was found to be 33 µM.

Turning to `Cc1cc(S(=O)(=O)Nc2cccc(C(=O)N3CCN(C)CC3)c2)c(C)cc1Cl` [Example 52, 4-chloro-2,5-dimethyl-N-(3-(4-methylpiperazine-1-carbonyl)phenyl)benzenesulfonamide], the AC50 was above 100 µM.

`Cc1cc(S(=O)(=O)N[C@H]2CCN(c3ccccc3)C2)c(C)cc1Cl` [Example 158, (S)-4-chloro-2,5-dimethyl-N-(1-phenylpyrrolidin-3-yl)benzenesulfonamide]: the half-maximal activity concentration (AC50) was above 100 µM.

On to `Cc1nc2cc(NS(=O)(=O)c3cc(C)c(Cl)cc3C)ccc2s1` [Example 71, 4-chloro-2,5-dimethyl-N-(2-methylbenzo[d]thiazol-5-yl)benzenesulfonamide], for which the concentration at half-maximal activity (AC50) is above 100 µM.

In the case of `Cc1ccc(C)c(S(=O)(=O)Nc2ccc(C(=O)N[C@@H](C)C3CC3)cc2)c1` [Example 39, (S)-N-(1-cyclopropylethyl)-4-((2,5-dimethylphenyl)sulfonamido)benzamide], the AC50 is above 100 µM.

For `Cc1cc(S(=O)(=O)Nc2cn(Cc3ccccc3)cn2)c(C)cc1Cl` [Example 168, N-(1-benzyl-1H-imidazol-4-yl)-4-chloro-2,5-dimethylbenzenesulfonamide], the AC50 is above 100 µM.

Turning to `Cc1cnc(-c2cccc(NS(=O)(=O)c3cc(C)c(Cl)cc3C)c2)s1` [Example 21, 4-chloro-2,5-dimethyl-N-(3-(5-methylthiazol-2-yl)phenyl)benzenesulfonamide], the concentration at half-maximal activity (AC50) was 2 µM.

`Cc1ccc(C)c(S(=O)(=O)Nc2cccc(-c3nccs3)c2)c1` [Example 60]: the AC50 is 2 µM.

As to `Cc1cc(S(=O)(=O)Nc2cccc(C(=O)N3CCC[C@H]3C)c2F)c(C)cc1Cl` [Example 57, (R)-4-chloro-N-(2-fluoro-3-(2-methylpyrrolidine-1-carbonyl)phenyl)-2,5-dimethylbenzenesulfonamide], the half-maximal activity concentration (AC50) was above 100 µM.

On to `Cc1cc(S(=O)(=O)Nc2csc(C(=O)N(CC(N)=O)C3CCCC3)n2)c(C)cc1Cl` [Example 177, N-(2-amino-2-oxoethyl)-4-((4-chloro-2,5-dimethylphenyl)sulfonamido)-N-cyclopentylthiazole-2-carboxamide], for which the half-maximal activity concentration (AC50) was above 100 µM.

As to `CC[C@@H]1CCCN1C(=O)c1cccc(NS(=O)(=O)c2cc(C)c(Cl)cc2C)c1` [Example 65, (R)-4-chloro-N-(3-(2-ethylpyrrolidine-1-carbonyl)phenyl)-2,5-dimethylbenzenesulfonamide], the concentration at half-maximal activity (AC50) is 12 µM.

For the molecule `Cc1ccccc1S(=O)(=O)Nc1cccc(C(=O)N2CCOC[C@@H]2C)c1` [Example 23, (S)-2-methyl-N-(3-(3-methylmorpholine-4-carbonyl)phenyl)benzenesulfonamide], the concentration at half-maximal activity (AC50) was above 100 µM.

Turning to `Cc1cc(S(=O)(=O)Nc2cccc(-c3cc(C4CC4)[nH]n3)c2)c(C)cc1Cl` [Example 64, 4-chloro-N-(3-(5-cyclopropyl-1H-pyrazol-3-yl)phenyl)-2,5-dimethylbenzenesulfonamide], the half-maximal activity concentration (AC50) was determined as 1 µM.

Turning to `Cc1cc(S(=O)(=O)Nc2cccc(C(=O)N3CCN(C)C[C@H]3C)c2)c(C)cc1Cl` [Example 54, (R)-4-chloro-N-(3-(2,4-dimethylpiperazine-1-carbonyl)phenyl)-2,5-dimethylbenzenesulfonamide], the AC50 amounted to 21 µM.

In the case of `Cc1ccc(C)c(S(=O)(=O)Nc2cccc(C(=O)N3CCSCC3C(N)=O)c2)c1` (stereo not drawn) [Example 41, 4-(3-((2,5-dimethylphenyl)sulfonamido)benzoyl) thiomorpholine-3-carboxamide], the half-maximal activity concentration (AC50) was 21 µM.

With `Cc1cc(S(=O)(=O)Nc2cccc(C(=O)N3CCN(CCO)CC3)c2)c(C)cc1Cl` [Example 55, 4-chloro-N-(3-(4-(2-hydroxyethyl)piperazine-1-carbonyl)phenyl)-2,5-dimethylbenzenesulfonamide], the concentration at half-maximal activity (AC50) was above 100 µM.

With `Cc1cc(-c2cccc(NS(=O)(=O)c3cc(C)c(Cl)cc3C)c2)n[nH]1` [Example 66, 4-chloro-2,5-dimethyl-N-(3-(5-methyl-1H-pyrazol-3-yl)phenyl)benzenesulfonamide], the half-maximal activity concentration (AC50) was 1 µM.
